Measurements reported in ChEMBL document CHEMBL1201862, “PubChem BioAssay data set” (2004).
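Growth conditions: 96-well plates. Treatment: test compound, 48 hours, 5 concentrations. Analysis: linear interpolation between bracketing concentrations; unreached endpoints set to highest concentration. GI50 is the concentration that inhibits growth by half.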 The source made the active and inactive calls. No stated cut-off is given here; in the data, active = GI50 up to about 1.1 µM and inactive = higher.

Experiments:
Test in all cases: inhibition of tumour cell growth, NCI panel, 48 h
DLD-1 = system: DLD-1
DMS-273 = system: DMS-273
HOP-18 = system: HOP-18
KM-20L2 = system: KM-20L2
LXFL 529 = system: LXFL 529
M19-MEL = system: M19-MEL
RXF 631 = system: RXF 631
SNB-78 = system: SNB-78
XF498 = system: XF498

Measured: GI50

COc1cc2cc(OC(C)=O)c3cc4c(cc3c2c(OC)c1OC)OCO4
inactive: DLD-1 > 100 µM | DMS-273 > 100 µM | HOP-18 > 100 µM | KM-20L2 > 100 µM | LXFL 529 > 100 µM | M19-MEL > 100 µM | RXF 631 > 100 µM | SNB-78 > 100 µM | XF498 > 100 µM

C/C(CCn1[nH]c(=O)ccc1=O)=N\Nc1ccc([N+](=O)[O-])cc1[N+](=O)[O-]
inactive: DLD-1 > 100 µM | DMS-273 25.4 µM | HOP-18 > 100 µM | KM-20L2 33.7 µM | LXFL 529 14.6 µM | M19-MEL > 100 µM | RXF 631 > 100 µM | SNB-78 > 100 µM | XF498 > 100 µM

CN1CCC(=O)/C(=C/c2ccccc2)C1
inactive: DLD-1 6.24 µM | DMS-273 6.55 µM | HOP-18 18.2 µM | KM-20L2 12.4 µM | LXFL 529 6.32 µM | M19-MEL 5.45 µM | RXF 631 16.7 µM | SNB-78 19.6 µM | XF498 18.7 µM

CN(C)c1ccc(Cc2cc(C(C)(C)C)cc(C(C)(C)C)c2O)cc1
inactive: DLD-1 21.8 µM | DMS-273 17.4 µM | HOP-18 26 µM | KM-20L2 18.5 µM | LXFL 529 15.2 µM | M19-MEL 21.3 µM | RXF 631 17.3 µM | SNB-78 18.5 µM | XF498 19.9 µM
